From US9326987B2 (priority 2010, dated 2016)
pIC50: −log10 of the molar value. Counter-ions that a name gives are not always drawn. Like-named read-outs stand apart in the source and are kept apart here.

Tests used:
B/Lee/40 = experiment: Influenza virus cytoprotection assay in A549 cells (MTS); assay type: cell-based; settings: A549, 168 h
B/Russia/69 = experiment: as above; assay type: cell-based; settings: unidentified influenza virus, A549, 168 h
A/PR/8/34 (H1N1) = experiment: as above; assay type: cell-based; settings: for inhibition at 10 µM: 10 μM compound, read-out: inhibition observed at 10 μM
A/WS/33 (H1N1) = experiment: as above; assay type: cell-based; settings: for inhibition at 10 µM: 10 μM compound, read-out: inhibition observed at 10 μM
in vitro = settings: human
A/Hong Kong/8/68 (H3N2) = experiment: Influenza virus cytoprotection assay in A549 cells (MTS); assay type: cell-based; settings: for inhibition at 10 µM: 10 μM compound, read-out: inhibition observed at 10 μM
A549 cells = settings: concentration resulting in 50% cell death, absence of virus; for CC50: read-out: TC50
A/Victoria/3/75 (H3N2) = experiment: Influenza virus cytoprotection assay in A549 cells (MTS); assay type: cell-based
[1] = 168 h, reduction in viral cytopathic effects, 7 days

SMILES | pIC50 (B/Lee/40) | pIC50 (B/Russia/69) | inhibition at 10 µM (A/PR/8/34 (H1N1)) | inhibition at 10 µM (A/WS/33 (H1N1)) | CC50 (in vitro) | inhibition at 10 µM (A/Hong Kong/8/68 (H3N2)) | CC50 (A549 cells; A/PR/8/34 (H1N1)) | CC50 (A549 cells; A/Victoria/3/75 (H3N2)) | CC50 (A549 cells; A/WS/33 (H1N1)) | CC50 (A549 cells; B/Lee/40) | CC50 (A549 cells; B/Russia/69) | pIC50 (A/Victoria/3/75 (H3N2); [1]) | IC50 (B/Lee/40) | IC50 (B/Russia/69) | IC50 (A/PR/8/34 (H1N1); [1]) | IC50 (A/WS/33 (H1N1); [1]) | IC50 (A/Hong Kong/8/68 (H3N2); [1]) | IC50 (A/Victoria/3/75 (H3N2); [1]) | pIC50 (A/PR/8/34 (H1N1); [1]) | pIC50 (A/WS/33 (H1N1); [1]) | pIC50 (A/Hong Kong/8/68 (H3N2); [1]) | also measured
CC(C)N1CCN(Cc2cnc(-c3cc(-c4cccc5[nH]ccc45)cc4[nH]ncc34)o2)CC1 [Compound A, 6-(1H-indol-4-yl)-4-(5-{[4-(1-methylethyl)-1-piperazinyl]methyl}-1,3-oxazol-2-yl)-1H-indazole hydrochloride] | 5.34 | 5.45 | 15.9% | 21.4% | > 10 µM | 40.4% | > 10 µM | > 10 µM | > 10 µM | > 10 µM | > 10 µM | 5.04 |  |  |  |  |  |  |  |  |  | 
COc1ncc(-c2cc(-c3ncc(CN4C[C@@H](C)O[C@@H](C)C4)o3)c3cn[nH]c3c2)cc1NS(C)(=O)=O [Compound B, N-[5-[4-(5-{[(2R,6S)-2,6-dimethyl-4-morpholinyl]methyl}-1,3-oxazol-2-yl)-1H-indazol-6-yl]-2-(methyloxy)-3-pyridinyl]methanesulfonamide] | 5.10 | 5.33 | 35% | 0.1% | > 10 µM | 13.7% | > 10 µM | > 10 µM | > 10 µM | > 10 µM | > 10 µM |  |  |  |  |  |  |  |  |  |  | inhibition at 10 µM (A/Victoria/3/75 (H3N2); 10 μM compound, read-out: inhibition observed at 10 μM): 11.4%
NC(=O)c1ncn([C@@H]2O[C@H](CO)[C@@H](O)[C@H]2O)n1 [Ribavirin, ribavirin] |  |  |  |  |  |  |  |  |  |  |  |  | 6.65 µg/mL | 4.75 µg/mL | 7.35 µg/mL | 7.34 µg/mL | 6.59 µg/mL | 6.01 µg/mL |  |  |  | TC50 (A549 cells; A/PR/8/34 (H1N1)): >100 µg/mL; TC50 (A549 cells; A/Victoria/3/75 (H3N2)): >100 µg/mL; TC50 (A549 cells; A/WS/33 (H1N1)): >100 µg/mL; TC50 (A549 cells; B/Lee/40): >100 µg/mL; TC50 (A549 cells; B/Russia/69): >100 µg/mL; TC50 (A549 cells; table row A/Hong Kong/8/68 (H3N2)): >100 µg/mL
CC(=O)N[C@H]1[C@H]([C@H](O)[C@H](O)CO)OC(C(=O)O)=C[C@@H]1N=C(N)N [Zanamivir, zinamavir] | 5.60 | 5.49 |  |  | > 100 µM |  | > 100 µM | > 100 µM | > 100 µM | > 100 µM | > 100 µM | 6.08 |  |  |  |  |  |  | […] | 6.13 | 6.06 | 
